Consider 5 compounds from ChEMBL document CHEMBL1146481, “Rediocides B-E, potent insecticides from Trigonostemon reidioides” (2004).

This assay relates to Ctenocephalides felis. As to the kind of experiment: Insecticidal activity against Ctenocephalides felis by anti-flea artificial membrane feeding system. It is filed as functional.
With `C[C@@H]1[C@@H]2OC3(c4ccccc4)O[C@@H]4[C@@H]5[C@@H]6O[C@]6(C)[C@@H](O)[C@@]6(O)[C@@H](C[C@H](C)[C@@H]6OC(=O)/C=C/[C@@H]6O[C@H]6[C@H](OC(=O)c6ccccc6)C6CCC(CC6)C[C@@](C)(O)[C@@]42O)[C@]51O3` [REDIOCIDE D], the LD90 is on record as 0.25 ppm. Next, `C[C@H]1[C@@H]2CC[C@@H]1[C@@H](OC(=O)c1ccccc1)/C=C/C=C/C(=O)O[C@H]1[C@@H](C)C[C@@H]3[C@]1(O)[C@H](O)[C@@]1(CO)O[C@H]1[C@H]1[C@H]4OC5(c6ccccc6)O[C@@H]([C@@H](C)[C@@]13O5)[C@@]4(O)[C@](C)(O)C2` [REDIOCIDE C]: 0.5 ppm. The figure for `CC(C)CC(=O)O[C@H]1/C=C/C=C/C(=O)O[C@H]2CC[C@@H]3[C@]2(O)[C@H](O)[C@@]2(CO)O[C@H]2[C@H]2[C@H]4OC5(c6ccccc6)O[C@@H]([C@@H](C)[C@@]23O5)[C@@]4(O)[C@](C)(O)C[C@H]2CC[C@H]1[C@H]2C` [REDIOCIDE E] is 0.5 ppm. `CC(C)CC(=O)O[C@H]1/C=C/C=C/C(=O)O[C@H]2[C@@H](C)C[C@@H]3[C@]2(O)[C@H](O)[C@@]2(CO)O[C@H]2[C@H]2[C@H]4OC5(c6ccccc6)O[C@@H]([C@@H](C)[C@@]23O5)[C@@]4(O)[C@](C)(O)CC2CCC1CC2` [REDIOCIDE B] came in with an LD90 of 0.25 ppm. The figure for `CC(C)CC(=O)O[C@H]1/C=C/C=C/C(=O)O[C@H]2[C@@H](C)C[C@@H]3[C@]2(O)[C@H](O)[C@@]2(CO)O[C@H]2[C@H]2[C@H]4OC5(c6ccccc6)O[C@@H]([C@@H](C)[C@@]23O5)[C@@]4(O)[C@](C)(O)C[C@H]2CC[C@H]1[C@H]2C` [REDIOCIDE A] is 0.25 ppm.
